Test results reported in patent publication US20150362482A1 (priority 2013, published 2015).

How the values were obtained:
Assay type in all cases: cell-based, mouse
[1] = system: ESNs
[2] = system: networked ESN cultures
[3] = system: GABARA
[4] = system: iGluR

With `NC1=N[C@H](O)[C@H]2[C@H]3O[C@]4(O)O[C@@H]([C@@H](O)[C@@]2(N1)[C@@H]4O)[C@]3(O)CO` [TTX, tetrodotoxin] the excitatory post-synaptic currents [1] was “blocked”.
`NCCCC(=O)O` [GABA] was tested, and the “effect on spontaneous network activity” value [2] was “silenced spontaneous network activity”.
For `NCc1cc(=O)[nH]o1` [muscimol], the agonist-induced current [3] was “large desensitizing Cl-current”.
With `N[C@@H](CCC(=O)O)C(=O)O` [glutamate] the agonist-induced current [4] was “multiphasic inward current”.
`Nc1ccncc1N` [3,4-DAP, 3,4-diaminopyridine] was tested, and the “network behaviour in simultaneous dual intracellular recordings” value [2] was “rapid transition to a synchronized bursting behavior”.
